Columns and labels:
Details in all cases: 48 h
NOMO1 [1] = assay: cell viability relative to DMSO control; higher = less cytotoxic
In short: (§1)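 Viability is expressed as a percentage of DMSO wells within each plate, and cell-free wells serve as background. Seeding densities in the 1536-well plates (5 μl) were 500 cells/well for NOMO1 or SEM leukemia cells and 1000 cells/well for P12-Ichikawa. Each line was adapted for at least four passages in each medium. Library compounds in DMSO were pin-dosed at 47 μM to 0.79 nM (11 points, threefold), and CellTiter-Glo One luminescence was read after 48 h at 37°C.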

SEM cells [2] = assay: as above
In short: as §1

P12-Ichikawa [3] = assay: as above
In short: as §1

NOMO1 [4] = assay: AUC of viability dose-response curve (% viability x log10 dose units); higher = less sensitive
In short: (§2)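 In 1536-well plates, leukemia cells adapted to each medium (500 or 1000 cells/well) were exposed for 48 h at 37°C to library compounds in DMSO across 11 threefold doses, 47 μM down to 0.79 nM. Viability was read by CellTiter-Glo One luminescence and normalised per plate to DMSO and cell-free wells. A four-parameter log-logistic fit over log10 doses was integrated by trapezoidal rule. This yielded the area under the curve, with over-full-viability curves scaled and quality-control failures dropped.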

SEM cells [5] = assay: as above
In short: as §2

P12-Ichikawa [6] = assay: as above
In short: as §2

Clc1ccccc1C(c1ccccc1)(c1ccccc1)n1ccnc1
cell viability [%]
Details	NOMO1 [1]	P12-Ichikawa [3]	SEM cells [2]
HPLM + 10% dialyzed FBS, 0.000781 µM	120	108	118
HPLM + 10% dialyzed FBS, 0.00234 µM	115	114	114
HPLM + 10% dialyzed FBS, 0.00702 µM	125	107	126
HPLM + 10% dialyzed FBS, 0.0211 µM	123	115	121
HPLM + 10% dialyzed FBS, 0.0632 µM	116	108	117
HPLM + 10% dialyzed FBS, 0.19 µM	114	110	119
HPLM + 10% dialyzed FBS, 0.569 µM	123	107	112
HPLM + 10% dialyzed FBS, 1.71 µM	105	96.7	55.8
HPLM + 10% dialyzed FBS, 5.12 µM	108	100	103
HPLM + 10% dialyzed FBS, 15.4 µM	101	91.7	104
HPLM + 10% dialyzed FBS, 46.1 µM	78.6	74.8	73.3
RPMI 5 mM glucose + 10% FBS, 0.000781 µM	103	–	117
RPMI 5 mM glucose + 10% FBS, 0.00234 µM	122	–	110
RPMI 5 mM glucose + 10% FBS, 0.00702 µM	114	–	126
RPMI 5 mM glucose + 10% FBS, 0.0211 µM	122	–	123
RPMI 5 mM glucose + 10% FBS, 0.0632 µM	111	–	118
RPMI 5 mM glucose + 10% FBS, 0.19 µM	110	–	108
RPMI 5 mM glucose + 10% FBS, 0.569 µM	114	–	106
RPMI 5 mM glucose + 10% FBS, 1.71 µM	103	–	53.3
RPMI 5 mM glucose + 10% FBS, 5.12 µM	95	–	101
RPMI 5 mM glucose + 10% FBS, 15.4 µM	92.7	–	86.6
RPMI 5 mM glucose + 10% FBS, 46.1 µM	69.1	–	69.6
RPMI 5 mM glucose + 10% dialyzed FBS, 0.000781 µM	119	103	–
RPMI 5 mM glucose + 10% dialyzed FBS, 0.00234 µM	114	114	–
RPMI 5 mM glucose + 10% dialyzed FBS, 0.00702 µM	119	112	–
RPMI 5 mM glucose + 10% dialyzed FBS, 0.0211 µM	110	108	–
RPMI 5 mM glucose + 10% dialyzed FBS, 0.0632 µM	116	106	–
RPMI 5 mM glucose + 10% dialyzed FBS, 0.19 µM	117	110	–
RPMI 5 mM glucose + 10% dialyzed FBS, 0.569 µM	124	103	–
RPMI 5 mM glucose + 10% dialyzed FBS, 1.71 µM	104	102	–
RPMI 5 mM glucose + 10% dialyzed FBS, 5.12 µM	113	88.6	–
RPMI 5 mM glucose + 10% dialyzed FBS, 15.4 µM	111	93.8	–
RPMI 5 mM glucose + 10% dialyzed FBS, 46.1 µM	80.3	58.5	–

AUC of viability dose-response curve
Details	NOMO1 [4]	P12-Ichikawa [6]	SEM cells [5]
HPLM + 10% dialyzed FBS	451	448	425
RPMI 5 mM glucose + 10% FBS	443	426	416
RPMI 5 mM glucose + 10% dialyzed FBS	468	448	412

N#Cc1ccc(NC(=O)Nc2ccccc2Br)c2nn[nH]c12
cell viability [%]
Details	NOMO1 [1]	P12-Ichikawa [3]	SEM cells [2]
HPLM + 10% dialyzed FBS, 0.000781 µM	–	101	81.8
HPLM + 10% dialyzed FBS, 0.00234 µM	–	109	93.9
HPLM + 10% dialyzed FBS, 0.00702 µM	–	109	110
HPLM + 10% dialyzed FBS, 0.0211 µM	–	115	103
HPLM + 10% dialyzed FBS, 0.0632 µM	–	119	107
HPLM + 10% dialyzed FBS, 0.19 µM	–	123	108
HPLM + 10% dialyzed FBS, 0.569 µM	–	122	123
HPLM + 10% dialyzed FBS, 1.71 µM	–	116	126
HPLM + 10% dialyzed FBS, 5.12 µM	–	125	125
HPLM + 10% dialyzed FBS, 15.4 µM	–	126	109
HPLM + 10% dialyzed FBS, 46.1 µM	–	79.1	112
RPMI 5 mM glucose + 10% FBS, 0.000781 µM	101	101	80.7
RPMI 5 mM glucose + 10% FBS, 0.00234 µM	122	109	111
RPMI 5 mM glucose + 10% FBS, 0.00702 µM	102	112	97.9
RPMI 5 mM glucose + 10% FBS, 0.0211 µM	107	120	91.4
RPMI 5 mM glucose + 10% FBS, 0.0632 µM	117	118	113
RPMI 5 mM glucose + 10% FBS, 0.19 µM	119	134	103
RPMI 5 mM glucose + 10% FBS, 0.569 µM	122	122	101
RPMI 5 mM glucose + 10% FBS, 1.71 µM	114	117	101
RPMI 5 mM glucose + 10% FBS, 5.12 µM	107	128	107
RPMI 5 mM glucose + 10% FBS, 15.4 µM	120	127	104
RPMI 5 mM glucose + 10% FBS, 46.1 µM	119	122	81.7
RPMI 5 mM glucose + 10% dialyzed FBS, 0.000781 µM	94.1	103	93.1
RPMI 5 mM glucose + 10% dialyzed FBS, 0.00234 µM	106	110	103
RPMI 5 mM glucose + 10% dialyzed FBS, 0.00702 µM	106	111	108
RPMI 5 mM glucose + 10% dialyzed FBS, 0.0211 µM	105	108	99
RPMI 5 mM glucose + 10% dialyzed FBS, 0.0632 µM	101	117	116
RPMI 5 mM glucose + 10% dialyzed FBS, 0.19 µM	113	112	129
RPMI 5 mM glucose + 10% dialyzed FBS, 0.569 µM	123	123	125
RPMI 5 mM glucose + 10% dialyzed FBS, 1.71 µM	109	109	124
RPMI 5 mM glucose + 10% dialyzed FBS, 5.12 µM	105	121	121
RPMI 5 mM glucose + 10% dialyzed FBS, 15.4 µM	101	125	114
RPMI 5 mM glucose + 10% dialyzed FBS, 46.1 µM	115	95.7	107

AUC of viability dose-response curve
Details	NOMO1 [4]	P12-Ichikawa [6]	SEM cells [5]
HPLM + 10% dialyzed FBS	477	475	448
RPMI 5 mM glucose + 10% FBS	463	457	473
RPMI 5 mM glucose + 10% dialyzed FBS	456	465	449

OCCN(CCO)c1nc(N2CCCCC2)c2nc(N(CCO)CCO)nc(N3CCCCC3)c2n1
cell viability [%]
Details	NOMO1 [1]	P12-Ichikawa [3]	SEM cells [2]
HPLM + 10% dialyzed FBS, 0.000781 µM	128	113	108
HPLM + 10% dialyzed FBS, 0.00234 µM	112	110	111
HPLM + 10% dialyzed FBS, 0.00702 µM	104	118	109
HPLM + 10% dialyzed FBS, 0.0211 µM	128	114	109
HPLM + 10% dialyzed FBS, 0.0632 µM	115	114	118
HPLM + 10% dialyzed FBS, 0.19 µM	112	113	119
HPLM + 10% dialyzed FBS, 0.569 µM	120	109	117
HPLM + 10% dialyzed FBS, 1.71 µM	111	107	114
HPLM + 10% dialyzed FBS, 5.12 µM	94.5	107	99.3
HPLM + 10% dialyzed FBS, 15.4 µM	105	98	89.9
HPLM + 10% dialyzed FBS, 46.1 µM	46.4	75	82.4
RPMI 5 mM glucose + 10% FBS, 0.000781 µM	120	108	120
RPMI 5 mM glucose + 10% FBS, 0.00234 µM	129	108	111
RPMI 5 mM glucose + 10% FBS, 0.00702 µM	119	113	118
RPMI 5 mM glucose + 10% FBS, 0.0211 µM	107	111	120
RPMI 5 mM glucose + 10% FBS, 0.0632 µM	114	119	127
RPMI 5 mM glucose + 10% FBS, 0.19 µM	113	113	124
RPMI 5 mM glucose + 10% FBS, 0.569 µM	105	110	111
RPMI 5 mM glucose + 10% FBS, 1.71 µM	114	106	104
RPMI 5 mM glucose + 10% FBS, 5.12 µM	111	109	111
RPMI 5 mM glucose + 10% FBS, 15.4 µM	113	109	103
RPMI 5 mM glucose + 10% FBS, 46.1 µM	92.4	68.2	72.4
RPMI 5 mM glucose + 10% dialyzed FBS, 0.000781 µM	113	113	128
RPMI 5 mM glucose + 10% dialyzed FBS, 0.00234 µM	115	105	120
RPMI 5 mM glucose + 10% dialyzed FBS, 0.00702 µM	117	111	113
RPMI 5 mM glucose + 10% dialyzed FBS, 0.0211 µM	115	106	104
RPMI 5 mM glucose + 10% dialyzed FBS, 0.0632 µM	113	117	121
RPMI 5 mM glucose + 10% dialyzed FBS, 0.19 µM	114	106	102
RPMI 5 mM glucose + 10% dialyzed FBS, 0.569 µM	121	105	143
RPMI 5 mM glucose + 10% dialyzed FBS, 1.71 µM	114	101	131
RPMI 5 mM glucose + 10% dialyzed FBS, 5.12 µM	114	103	116
RPMI 5 mM glucose + 10% dialyzed FBS, 15.4 µM	110	101	106
RPMI 5 mM glucose + 10% dialyzed FBS, 46.1 µM	68	58.4	67.8

AUC of viability dose-response curve
Details	NOMO1 [4]	P12-Ichikawa [6]	SEM cells [5]
HPLM + 10% dialyzed FBS	459	459	454
RPMI 5 mM glucose + 10% FBS	438	467	457
RPMI 5 mM glucose + 10% dialyzed FBS	465	463	461
